According to BigSolDB 2.1:

[NH3+]O.[NH3+]O.[O-]n1nnnc1-c1nnnn1[O-]
solubility (mole fraction)
Settings	298.15 K	303.15 K	308.15 K	313.15 K	318.15 K	323.15 K	328.15 K	333.15 K
in formic acid	0.00145	0.00161	0.0018	0.00201	0.00225	0.00254	0.00287	0.00325
in water	7.96e-05	0.000155	0.00024	0.000317	0.000403	0.000489	0.00058	0.000665
